Measurements as given in patent US20060111408A1, “Therapeutic benzothiazole compounds” (priority 2000, published 2006).

Key:
βER = biological target: T1, βER (Homo sapiens, UniProt Q92731); experiment: Cell-based assay for ER transcriptional activity (ERE β-gal reporter), βER-transfected 293 cells; settings: for EC50: 293 cells transfected with βER and ERE β-gal reporter; for Emax: HEK293, 293 cells transfected with βER, max controls 10 nM beta-estradiol; for ERE Selectivity: β-ER over α-ER, from ERE EC50 values
T1 construct: expressed in transfected cells; host or cells: 293 cells (Human Embryonic Kidney, ATCC CRL-1573); the transfection step says 293T
T1 sequence (Q92731 54-530 limits assumed): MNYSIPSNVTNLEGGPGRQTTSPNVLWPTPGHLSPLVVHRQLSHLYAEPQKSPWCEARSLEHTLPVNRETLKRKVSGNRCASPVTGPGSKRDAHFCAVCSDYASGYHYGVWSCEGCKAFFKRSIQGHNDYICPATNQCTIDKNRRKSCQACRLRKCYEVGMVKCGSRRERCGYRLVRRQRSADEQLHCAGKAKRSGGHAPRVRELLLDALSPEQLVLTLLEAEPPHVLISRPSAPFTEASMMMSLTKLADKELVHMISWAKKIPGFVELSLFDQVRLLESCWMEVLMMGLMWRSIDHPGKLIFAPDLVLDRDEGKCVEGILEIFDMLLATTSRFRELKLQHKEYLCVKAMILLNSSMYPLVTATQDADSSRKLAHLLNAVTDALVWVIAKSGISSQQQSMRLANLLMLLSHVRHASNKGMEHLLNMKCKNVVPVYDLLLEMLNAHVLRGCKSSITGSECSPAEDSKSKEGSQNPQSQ
Experimental: (§1) Cell-based Assay for ER Transcriptional Activity:
(§2) ERs are ligand-dependent transcription factors that bind the promoter regions of genes at a consensus DNA sequence called the estrogen responsive element (ERE). The ER agonist or antagonist activity of a drug was determined by measuring the amount of reporter enzyme activity expressed from a plasmid under the control of an estrogen-responsive element when cells transiently transfected with ER and the reporter plasmid were exposed to drug. These experiments were conducted according to the following methods.
(§3) Cells are grown in DMEM supplemented with 10% FBS, glutamine, sodium pyruvate and penicillin/streptomycin. Cells are grown to 80% confluency and split 1:10 or 1:20.
(§4) 2. The next day the media is changed, 1 hour prior to transfection, to fresh phenol red-free DMEM 10% FBS (charcoal stripped) and supplements.
(§5) 3. Transfections are performed using the Profection Kit from Promega #El 200, this kit is based on calcium phosphate mediated transfection. Reagents are added in sterile polystyrene tubes in the following order:
(§6) 6. The day after transfection, cells are washed 2× with PBS Ca Mg freePBS containing 1 mM EGTA pH=7.6. […] Trypsin is neutralized with 6 ml DMEM (no phenol red)+10% charcoal stripped FBS. Cells are pelleted at 1000×g for 5 min. Cell pellet is resuspended in 10 ml DMEM (no phenol red)+2% charcoal stripped FBS supplemented with glutamine and Penn/Strep and the cells are counted. Additional medium is added to dilute the cell density to 500,000 cells/ml.
(§7) 7. […] Plates are incubated for approx. 2-4 hours to allow cells to attach.
(§8) 8. Compounds are prepared at concentration of 4 mM in 100% DMSO, then diluted into medium with supplements but no serum. The first 2 dilutions are done in medium with no DMSO, then the remaining dilutions are in medium plus 0.5% DMSO to keep the vehicle constant. Max controls are 10 nM beta-estradiol and background controls are 0.5% DMSO. Compounds are normally tested in the range of 10 uM to 1 nM and are prepared at twice the concentration to be tested. The compounds are added to the cell plates, 50 ul per well. All compounds are tested with an n=4 wells for single poke and n=2 for 9-pt curves.
(§9) 9. Cells are incubated overnight at 37° C. with the compounds.
(§10) 1. After 18-24 hr of stimulation, 100 ul of 7% CPRG cocktail is added to each well, the plate is incubated at 37C for approximately 30 minutes to 2 hours or until the OD reaches between 1.0 and 2.0.
(§11) 2. The plates are read on a spectrophotometric plate reader (Spectramax, Molecular Devices) at 570 nm and raw absorbances are obtained.
(§12) Data is compiled and interpreted with Excel using XLFit or GraphPad Prism to fit concentration-response curves.

αER = biological target: T2, αER (Homo sapiens, UniProt P03372); experiment: Cell-based assay for ER transcriptional activity (ERE β-gal reporter), αER-transfected 293 cells; settings: for EC50: 293 cells transfected with αER and ERE β-gal reporter, read-out: ERE α-ER EC50; for ERE α-ER Max: 293 cells transfected with αER, max controls 10 nM beta-estradiol
T2 construct: expressed in transfected cells; host or cells: 293 cells (Human Embryonic Kidney, ATCC CRL-1573); the transfection step says 293T
T2 sequence (P03372 1-595): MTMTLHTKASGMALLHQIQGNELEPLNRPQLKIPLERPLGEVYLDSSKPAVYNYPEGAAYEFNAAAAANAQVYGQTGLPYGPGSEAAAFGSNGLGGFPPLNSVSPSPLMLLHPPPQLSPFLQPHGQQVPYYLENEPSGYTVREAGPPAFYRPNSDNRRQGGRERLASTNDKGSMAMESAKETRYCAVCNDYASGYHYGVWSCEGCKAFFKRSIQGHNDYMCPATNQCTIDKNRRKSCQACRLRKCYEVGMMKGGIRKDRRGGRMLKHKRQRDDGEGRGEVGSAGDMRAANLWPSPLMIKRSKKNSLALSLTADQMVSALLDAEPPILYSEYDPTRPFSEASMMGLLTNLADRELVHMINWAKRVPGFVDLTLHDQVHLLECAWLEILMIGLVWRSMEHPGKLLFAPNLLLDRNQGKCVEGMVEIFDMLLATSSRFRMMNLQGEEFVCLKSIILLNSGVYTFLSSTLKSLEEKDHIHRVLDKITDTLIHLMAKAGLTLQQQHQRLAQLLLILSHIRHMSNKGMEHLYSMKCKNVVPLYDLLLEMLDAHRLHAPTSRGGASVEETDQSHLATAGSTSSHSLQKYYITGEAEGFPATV
Experimental: as §1, §2, §3, §4, §5, §6, §7, §8, §9, §10, §11, §12

human recombinant ERα = biological target: T3, human recombinant ERα (Homo sapiens, UniProt P03372); experiment: Fluorescence polarization estrogen receptor (ERFP) binding assay, ERα; settings: fluorescence polarization competition with Fluormone ES2; IC50 converted to Ki by Kenakin formula; read-out: FP α-ER Ki
T3 construct: purchased PanVera (Madison, Wis.)
T3 sequence (P03372 1-595): T2 sequence (P03372 1-595)
Experimental: (§13) Abbreviated Procedure for Fluorescence Polarization Estrogen Receptor (ERFP) Binding Assay
(§14) A homogeneous mix-and-measure estrogen receptor (ER) binding assay which utilizes fluorescence polarization (FP) technology is used to identify compounds with affinity for the estrogen receptor. Purchased from PanVera (Madison, Wis.), assay reagents include purified human recombinant ERα, human recombinant ERβ, ES2 screening buffer (100 mM potassium phosphate, pH 7.4, 100 μg/mL bovine gamma globulin), and Fluormone™ ES2.
For competition binding experiments, dilutions of test compounds are prepared at 2× the final assay concentration in 0.2% DMSO in ES2 Screening buffer on TECAN Genosys, and 25 μL compound/well is dispensed into black Costar ½ volume 96-well plates. […] Plates are gently shaken for at least 5 minutes to mix and incubated for at least 1 hr 45 minutes to achieve equilibrium. (Reaction mixtures are stable for up to 5 hours). After centrifugation to remove air bubbles, plates are read on an LJL Analyst or Acquest equipped with Criterion software at the following settings: Fluorescence Polarization Mode; Static Polarizer on Excitation Side; Dynamic Polarizer on Emission Side; Excitation λ=485+/−10 nm; Emission λ=520+/−12.5 nm.
(§15) Polarized fluorescence intensity values are collected and subsequently converted electronically to millipolarization (mp) values. Following data reduction and normalization with Excel and/or Prism software, % Ctrl values at the various test concentrations are used to obtain IC50 values via non-linear regression analysis of a four-parameter logistic equation.
Reference: Bolger et al., Rapid Screening of Environmental Chemicals for Estrogen Receptor Binding Capacity, Environmental Health Pespectives: 106 (1998), 1-7.

human recombinant ERβ = biological target: T4, human recombinant ERβ (Homo sapiens, UniProt Q92731); experiment: Fluorescence polarization estrogen receptor (ERFP) binding assay, ERβ; settings: for Ki: fluorescence polarization competition with Fluormone ES2, IC50 converted to Ki by Kenakin formula, read-out: FP β-ER Ki; for FP Selectivity: β-ER over α-ER, from FP Ki values
T4 construct: purchased PanVera (Madison, Wis.)
T4 sequence (Q92731 whole entry): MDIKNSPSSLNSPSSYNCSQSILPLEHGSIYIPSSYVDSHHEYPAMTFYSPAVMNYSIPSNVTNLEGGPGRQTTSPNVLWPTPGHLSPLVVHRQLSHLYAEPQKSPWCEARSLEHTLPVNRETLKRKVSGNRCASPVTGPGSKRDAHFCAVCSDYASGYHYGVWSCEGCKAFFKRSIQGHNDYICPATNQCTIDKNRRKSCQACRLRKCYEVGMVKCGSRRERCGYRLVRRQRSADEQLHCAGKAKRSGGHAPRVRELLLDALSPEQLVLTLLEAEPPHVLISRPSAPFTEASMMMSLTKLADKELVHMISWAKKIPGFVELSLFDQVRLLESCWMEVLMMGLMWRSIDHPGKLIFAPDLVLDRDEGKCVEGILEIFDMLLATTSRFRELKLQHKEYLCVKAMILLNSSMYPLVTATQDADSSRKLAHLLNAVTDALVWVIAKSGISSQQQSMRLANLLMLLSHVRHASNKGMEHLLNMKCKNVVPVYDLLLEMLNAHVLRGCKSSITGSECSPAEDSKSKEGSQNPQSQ
Experimental: as §13, §14
For competition binding experiments, dilutions of test compounds are prepared at 2× the final assay concentration in 0.2% DMSO in ES2 Screening buffer on TECAN Genosys, and 25 μL compound/well is dispensed into black Costar ½ volume 96-well plates. […] Plates are gently shaken for at least 5 minutes to mix and incubated for at least 1 hr 45 minutes to achieve equilibrium. (Reaction mixtures are stable for up to 5 hours).
as §15

Row | Structure (SMILES) | EC50 (βER) | Emax (βER) | ERE Selectivity (βER) | EC50 (αER) | ERE α-ER Max (αER) | Ki (human recombinant ERα) | Ki (human recombinant ERβ) | FP Selectivity (human recombinant ERβ)
1 | Oc1ccc(-c2nc3c(Cl)cc(O)cc3o2)cc1 [Example 1, 4-Chloro-6-hydroxy-2-(4-hydroxyphenyl)benzoxazole] | 1.2 nM | 98% | 52 | 61 nM | 103% | 18 nM | 1.7 nM | 10
2 | Cc1cc(O)cc2oc(-c3ccc(O)cc3)nc12 [Example 3, 6-Hydroxy-2-(4-hydroxyphenyl)-4-methylbenzoxazole] | 23 nM | 89% | 22 | 497 nM | 102% | 121 nM | 4.8 nM | 25

The next lines start with the values.

Row | EC50 (βER) | Emax (βER) | ERE Selectivity (βER) | EC50 (αER) | ERE α-ER Max (αER) | Ki (human recombinant ERα) | Ki (human recombinant ERβ) | FP Selectivity (human recombinant ERβ) | Structure (SMILES)
3 | – | 98% | 1.8 | – | 102% | 1000 nM | 290 nM | 3 | Oc1ccc(-c2nc3c(O)cc(O)cc3o2)cc1 [Example 5, 4,6-Dihydroxy-2-(4-hydroxyphenyl)benzoxazole]
4 | – | – | – | – | – | 477 nM | 148 nM | 3 | COc1ccc2oc(-c3ccc(O)cc3)nc2c1 [Example 8, 2-(4-hydroxyphenyl)-5-methoxybenzoxazole]
5 | 0.5 nM | 81% | 153 | 76 nM | 37% | 54 nM | 1.8 nM | 30 | Oc1cc(Br)c2oc(-c3ccc(O)c(Cl)c3)nc2c1 [Example 12, 7-Bromo-2-(3-chloro-4-hydroxy-phenyl)-benzooxazol-5-ol]
